The numbers were not newly measured in patent publication US4307083A, “LRF Antagonists” (The Salk Institute for Biological Studies, priority 1980, dated 1981), which cites them from elsewhere.

Non-standard residues stand in square brackets, D forms with d. pGlu = O=C1CC[C@@H](C(=O)O)N1

The series relates to release of gonadotropins. Particulars: versus des-His2 peptide with Gly instead of D-Ala at position 6.

Consider [pGlu]WSY[dA]LRPG-NH2, for which the “Potency as inhibitor of gonadotropin release relative to the same peptide with Gly in the 6-position” value was 3 times.
